Assays:
[1] = test system: mammalian SIRT1; assay: p53 deacetylation in A549 cells treated with corylin and nicotinamide, Western blotting; assay type: cell-based, human; conditions: nicotinamide 1 hour before corylin, then UV, FIG. 6
Method: Nicotinamide is a mammalian SIRT1 inhibitor (Exp Hematol. 2012; 40(4): 342-55), and the compound is used to confirm the foregoing result. After human lung cancer A549 cells were cultured at 37° C. overnight, the cells were treated with a media containing nicotinamide, and then cultured at 37° C. for 1 hour. Corylin in various concentrations was added to the media, and the cells were cultured at 37° C. for 4 hours. After which, the cells were emitted with UV to acetylate p53, and cultured at 37° C. for 4 hours again. Finally, the total protein in the cells were extracted and analyzed using Western blotting.

[2] = test system: wild type yeast cells; assay: Replicative life span of wild type yeast cells (passage number); assay type: cell-based
Method: (§1) A yeast colony was selected and cultured in a YEPD culture media. When the OD value of the media was at 0.6-0.8, 20 μl of the media was added to a YEPD solid media, and then 20-30 yeast cells were selected using a tetrad dissection microscope manipulation system. The selected yeast cells were cultured at 30° C. for 3-5 hours to divide into first generation yeast cells. Afterwards, the first generation yeast cells were cultured at 30° C. for 3-5 hours to divide into second generation yeast cells. The culturing step was repeated until final generation yeast cells which cannot divide anymore existed. Finally, the yeast cells' passage number was counted according to the total division number.

[3] = test system: sir2-mutant yeast cells; assay: Replicative life span of sir2-mutant yeast cells (passage number); assay type: cell-based; conditions: sir2-mutant yeast cells treated with corylin; untreated 9.8; FIG. 2
Method: as §1

[4] = test system: PNC1; assay: PNC1 transcription in corylin-treated yeast cells (PCR and real-time PCR); assay type: cell-based; conditions: various treatment periods; increases with treatment period; FIGS. 4A and 4B
Method: After yeast cells were treated with corylin for various periods, total RNA in the treated yeast cells was extracted. Then, the cDNA corresponding to the extracted RNA was formed using reverse transcription. Finally, the cDNA was analyzed using polymerase chain reaction and real-time polymerase chain reaction.

[5] = test system: PNC1; assay: PNC1 translation (Pnc1 protein) in corylin-treated yeast cells, Western blotting; assay type: cell-based; conditions: 50 μM corylin for 10 hours; compared with calorie restriction for 10 hours as positive control; FIG. 4C
Method: To confirm the foregoing result, after yeast cells were treated with corylin in various concentrations for various periods, total protein therein was extracted and analyzed using Western blotting.

[6] = test system: mammalian SIRT1; assay: Mammalian SIRT1 expression in human osteosarcoma U2OS cells, Western blotting; assay type: cell-based; conditions: increases with culturing period, FIG. 5A
Method: Human osteosarcoma U2OS cells were seeded and cultured at 37° C. overnight, and then the cells were treated with corylin and cultured at 37° C. again. After various culturing periods, total protein in the treated cells was extracted and analyzed using Western blotting.

[7] = test system: p53; assay: UV-induced p53 acetylation in human lung cancer A549 cells, Western blotting; assay type: cell-based; conditions: corylin in various concentrations, 4 hours before UV, FIG. 5B
Method: (§2) After human lung cancer A549 cells or human osteosarcoma U2OS cells were cultured at 37° C. overnight, the cells were treated with various substances, and then cultured at 37° C. for 4 hours. After that, the cells were emitted with UV to acetylate p53, and cultured at 37° C. for 4 hours again. Finally, total protein extracted from the cells was analyzed using Western blotting.

[8] = test system: p53; assay: UV-induced p53 acetylation in human osteosarcoma U2OS cells, Western blotting; assay type: cell-based; conditions: corylin in various concentrations, 4 hours before UV, FIG. 5C
Method: as §2

Q: Which “effect on p53 deacetylation caused by corylin” value [1] does the source give for `NC(=O)c1cccnc1` [nicotinamide, Nicotinamide] here?
A: can inhibit the p53 deacetylation caused by corylin

Q: Which “effective concentration on replicative life span of a yeast cell” value ([2]; FIG. 3) does the source give for corylin here?
A: 2 to 100 µM

Q: And the “preferable effective concentration on replicative life span of a yeast cell” value ([2]; FIG. 3, 'preferably')?
A: 2 to 15 µM

Q: And the “passage number (replicative life span)” value ([2]; wild type yeast cells treated with corylin, untreated 26.9, FIG. 2)?
A: 33.2

Q: What about the “passage number (replicative life span)” value [3] of the same molecule?
A: 10.6

Q: And the PNC1 transcription [4]?
A: can promote the transcription of PNC1

Q: And the “Pnc1 expression (PNC1 translation)” value [5]?
A: can obviously express Pnc1

Q: And the “mammalian SIRT1 expression” value [6]?
A: can promote the expression of mammalian SIRT1

Q: And the “acetylation of p53 induced by UV” value [7]?
A: can repress the acetylation of p53 induced by UV

Q: And the “acetylation of p53 induced by UV” value [8]?
A: can repress the acetylation of p53 induced by UV

Source: patent publication US20170035724A1, “MAMMALIAN SIRT1 ACTIVATOR” (priority 2015, published 2017)
